In ChEMBL document CHEMBL5360573, “Discovery of novel tryptamine derivatives as GluN2B subunit-containing NMDA receptor antagonists via pharmacophore-merging strategy with orally available therapeutic effect of cerebral ischemia” (Eur J Med Chem, 2023):
One block for each compound: values may come before it. The source made the active and inactive calls. The rule behind the calls is not given here.

Tests used:
SH-SY5Y [1] = experiment: Neuroprotective activity against NMDA-induced cell injury in human SH-SY5Y cells assessed as cell viability at 0.5 uM incubated for 6 hrs followed by NMDA treatment for 0.5 hrs and subsequent replacement of fresh medium without compounds by MTT assay relative to control; type: functional; conditions: time 6.5 hrs, read-out: Activity
SH-SY5Y [2] = experiment: Neuroprotective activity against NMDA-induced cell injury in human SH-SY5Y cells assessed as cell viability at 5 uM incubated for 6 hrs followed by NMDA treatment for 0.5 hrs and subsequent replacement of fresh medium without compounds by MTT assay relative to control; type: functional; conditions: time 6.5 hrs, read-out: Activity
SH-SY5Y [3] = experiment: Neuroprotective activity against NMDA-induced cell injury in human SH-SY5Y cells assessed as cell viability at 0.05 uM incubated for 6 hrs followed by NMDA treatment for 0.5 hrs and subsequent replacement of fresh medium without compounds by MTT assay relative to control; type: functional; conditions: time 6.5 hrs, read-out: Activity
[4] = AUC (0 to t) in C57 mouse at 10 mg/kg, po measured for 20 mins by LC-MS/MS analysis; type: ADME, organism-based; parameters: time 20 min, dose 10 mg/kg, route po; conditions: in vivo
[5] = Metabolic stability in human plasma assessed as compound remaining at 2 uM measured after 60 mins by LC-MS/MS analysis; type: ADME, cell-free; conditions: read-out: Stability
[6] = AUC (0 to infinity) in C57 mouse at 1 mg/kg, iv measured for 20 mins by LC-MS/MS analysis; type: ADME, organism-based; parameters: dose 1 mg/kg, time 20 min, route iv; conditions: in vivo
[7] = Metabolic stability in human plasma assessed as compound remaining at 2 uM measured after 10 mins by LC-MS/MS analysis; type: ADME, cell-free; conditions: read-out: Stability
[8] = Clearance in C57 mouse at 1 mg/kg, iv measured for 20 mins by LC-MS/MS analysis; type: ADME, organism-based; conditions: in vivo
Mus musculus [9] = experiment: Neuroprotective activity against ICV-ET1-induced cerebral ischemia injury C57BL/6J mouse model assessed as improvement in escape latency at 20 to 80 mg/kg, po administered daily measured on day 14 to 19 by Morris water maze test; type: functional, organism-based; conditions: dose 20-80 mg/kg, time 14-19 day
[10] = Half life in C57 mouse at 1 mg/kg, iv measured for 20 mins by LC-MS/MS analysis; type: ADME, organism-based; conditions: in vivo
[11] = biological target: Glutamate receptor ionotropic, NMDA 2B (Homo sapiens) (UniProt Q13224); experiment: Antagonist activity against GluN2B NMDAR in human SH-SY5Y cells assessed as reduction in NMDA-induced intracellular influx at 5 uM incubated for 6 hrs followed by replacement of fresh medium without compounds and subsequent NMDA treatment by Fluo-4AM dye based calcium mobilization assay; type: cell-based; conditions: filed as antagonist
[12] = Oral bioavailability in C57 mouse at 10 mg/kg measured for 20 mins by LC-MS/MS analysis; type: ADME, organism-based; conditions: in vivo
Mus musculus [13] = experiment: Neuroprotective activity against ICV-ET1-induced cerebral ischemia injury C57BL/6J mouse model assessed as increase in preferential index at 20 to 80 mg/kg, po administered daily measured on day 11 to 13 by novel object recognition test; type: functional, organism-based; conditions: dose 20-80 mg/kg, time 11-13 day
[14] = Metabolic stability in human plasma assessed as compound remaining at 2 uM measured immediately by LC-MS/MS analysis; type: ADME, cell-free; conditions: read-out: Stability
[15] = AUC (0 to t) in C57 mouse at 1 mg/kg, iv measured for 20 mins by LC-MS/MS analysis; type: ADME, organism-based; parameters: time 20 min, dose 1 mg/kg, route iv; conditions: in vivo
[16] = biological target: Glutamate receptor ionotropic, NMDA 2B (Homo sapiens) (UniProt Q13224); experiment: Antagonist activity against GluN2B NMDAR in human SH-SY5Y cells assessed as increase in NMDA-induced downregulation of phosphorylated ERK1/2 at 0.05 to 5 uM incubated for 6 hrs followed by NMDA treatment for 0.5 hrs and subsequent replacement of fresh medium without compounds by Western blot analysis; type: cell-based; conditions: filed as antagonist, dose 0.05-5 µM, time 6.5 hrs
[17] = Metabolic stability in human plasma assessed as compound remaining at 2 uM measured after 30 mins by LC-MS/MS analysis; type: ADME, cell-free; conditions: read-out: Stability
[18] = MRT (0 to t) in C57 mouse at 1 mg/kg, iv measured for 20 mins by LC-MS/MS analysis; type: ADME, organism-based; conditions: in vivo
[19] = MRT (0 to infinity) in C57 mouse at 10 mg/kg, po measured for 20 mins by LC-MS/MS analysis; type: ADME, organism-based; conditions: in vivo
[20] = Metabolic stability in human plasma assessed as compound remaining at 2 uM measured after 120 mins by LC-MS/MS analysis; type: ADME, cell-free; conditions: read-out: Stability
[21] = MRT (0 to infinity) in C57 mouse at 1 mg/kg, iv measured for 20 mins by LC-MS/MS analysis; type: ADME, organism-based; conditions: in vivo
Mus musculus [22] = experiment: Neuroprotective activity against ICV-ET1-induced cerebral ischemia injury C57BL/6J mouse model assessed as improvement in swimming distance at 20 to 80 mg/kg, po administered daily measured on day 14 to 19 by Morris water maze test; type: functional, organism-based; conditions: dose 20-80 mg/kg, time 14-19 day
[23] = Half life in C57 mouse at 10 mg/kg, po measured for 20 mins by LC-MS/MS analysis; type: ADME, organism-based; conditions: in vivo
[24] = Tmax in C57 mouse at 1 mg/kg, iv measured for 20 mins by LC-MS/MS analysis; type: ADME, organism-based; conditions: in vivo
[25] = Metabolic stability in human plasma assessed as half life at 2 uM by LC-MS/MS analysis; type: ADME, cell-free
Mus musculus [26] = experiment: Neuroprotective activity against ICV-ET1-induced cerebral ischemia injury C57BL/6J mouse model assessed as improvement of spontaneous alternation behavior administered orally daily for 10 days by Y-maze test; type: functional, organism-based; conditions: dose 20-80 mg/kg, route po, time 10.0 day
[27] = Tmax in C57 mouse at 10 mg/kg, po measured for 20 mins by LC-MS/MS analysis; type: ADME, organism-based; conditions: in vivo
[28] = MRT (0 to t) in C57 mouse at 10 mg/kg, po measured for 20 mins by LC-MS/MS analysis; type: ADME, organism-based; conditions: in vivo
[29] = Cmax in C57 mouse at 1 mg/kg, iv measured for 20 mins by LC-MS/MS analysis; type: ADME, organism-based; parameters: dose 1 mg/kg, time 20 min, route iv; conditions: in vivo
[30] = AUC (0 to infinity) in C57 mouse at 10 mg/kg, po measured for 20 mins by LC-MS/MS analysis; type: ADME, organism-based; parameters: dose 10 mg/kg, time 20 min, route po; conditions: in vivo
[31] = Cmax in C57 mouse at 10 mg/kg, po measured for 20 mins by LC-MS/MS analysis; type: ADME, organism-based; parameters: dose 10 mg/kg, time 20 min, route po; conditions: in vivo

Chain of Glutamate receptor ionotropic, NMDA 2B (Homo sapiens) (Q13224 27-1484 limits assumed): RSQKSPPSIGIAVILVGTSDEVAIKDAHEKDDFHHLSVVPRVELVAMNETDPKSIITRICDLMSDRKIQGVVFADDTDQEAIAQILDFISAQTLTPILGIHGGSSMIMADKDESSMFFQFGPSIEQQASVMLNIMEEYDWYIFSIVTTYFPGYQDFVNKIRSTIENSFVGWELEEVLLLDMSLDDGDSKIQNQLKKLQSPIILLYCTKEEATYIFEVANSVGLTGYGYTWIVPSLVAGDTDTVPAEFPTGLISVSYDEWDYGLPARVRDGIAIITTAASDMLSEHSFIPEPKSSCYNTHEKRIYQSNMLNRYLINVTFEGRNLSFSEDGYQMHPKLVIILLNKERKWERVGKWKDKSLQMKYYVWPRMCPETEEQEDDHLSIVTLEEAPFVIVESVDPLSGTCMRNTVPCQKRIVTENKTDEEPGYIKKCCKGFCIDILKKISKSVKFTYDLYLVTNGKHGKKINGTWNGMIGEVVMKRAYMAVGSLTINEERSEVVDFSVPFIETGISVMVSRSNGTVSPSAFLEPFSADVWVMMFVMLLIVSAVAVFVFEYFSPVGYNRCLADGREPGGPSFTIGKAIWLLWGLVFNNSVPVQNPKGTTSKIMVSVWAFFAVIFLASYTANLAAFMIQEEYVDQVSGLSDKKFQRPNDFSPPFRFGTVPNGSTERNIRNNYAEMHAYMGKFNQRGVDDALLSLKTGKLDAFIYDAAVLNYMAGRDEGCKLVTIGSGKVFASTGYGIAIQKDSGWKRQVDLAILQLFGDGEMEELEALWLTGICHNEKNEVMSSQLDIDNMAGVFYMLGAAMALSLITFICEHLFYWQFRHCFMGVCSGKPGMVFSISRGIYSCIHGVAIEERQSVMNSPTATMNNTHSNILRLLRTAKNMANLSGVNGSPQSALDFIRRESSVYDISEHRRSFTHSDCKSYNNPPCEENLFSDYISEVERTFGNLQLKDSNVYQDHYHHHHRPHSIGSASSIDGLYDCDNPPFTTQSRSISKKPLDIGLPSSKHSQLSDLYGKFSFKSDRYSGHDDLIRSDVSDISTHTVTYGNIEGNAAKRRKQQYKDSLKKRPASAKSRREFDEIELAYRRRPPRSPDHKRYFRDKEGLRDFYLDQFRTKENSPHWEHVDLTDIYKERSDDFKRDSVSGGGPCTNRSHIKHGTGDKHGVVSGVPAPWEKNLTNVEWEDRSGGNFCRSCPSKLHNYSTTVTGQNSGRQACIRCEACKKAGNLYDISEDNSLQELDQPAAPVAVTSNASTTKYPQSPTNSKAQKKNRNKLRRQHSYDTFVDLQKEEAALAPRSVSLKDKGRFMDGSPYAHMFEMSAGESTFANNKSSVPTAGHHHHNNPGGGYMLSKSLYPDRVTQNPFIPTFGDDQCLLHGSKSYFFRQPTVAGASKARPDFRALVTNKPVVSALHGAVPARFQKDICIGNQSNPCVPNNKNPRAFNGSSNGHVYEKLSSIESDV

SMILES: O=C(/C=C/c1ccc(O)cc1)NCCc1cn(CCc2ccccc2)c2ccccc12
viability at 0.5 µM (SH-SY5Y [1]): 10.1% | viability at 5 µM (SH-SY5Y [2]): 8% | viability at 0.05 µM (SH-SY5Y [3]): 25.9%

SMILES: CCn1cc(CCNC(=O)/C=C/c2ccc(O)cc2)c2ccccc21
viability at 0.5 µM (SH-SY5Y [1]): 22.4% | viability at 5 µM (SH-SY5Y [2]): 19.9% | viability at 0.05 µM (SH-SY5Y [3]): 19.9%

SMILES: O=C(/C=C/c1ccc(O)cc1)NCCc1cn(CCCc2ccccc2)c2ccccc12
viability at 0.5 µM (SH-SY5Y [1]): 19.3% | viability at 5 µM (SH-SY5Y [2]): 12.5% | viability at 0.05 µM (SH-SY5Y [3]): 20.1%

SMILES: O=C(/C=C/c1ccc(O)cc1)NCCc1cn(Cc2cccc(F)c2)c2ccccc12
viability at 0.5 µM (SH-SY5Y [1]): 21.8% | viability at 5 µM (SH-SY5Y [2]): 18.8% | viability at 0.05 µM (SH-SY5Y [3]): 28.6%

SMILES: O=C(/C=C/c1ccc(O)cc1)NCCc1cn(Cc2ccc(F)cc2)c2ccccc12
viability at 0.5 µM (SH-SY5Y [1]): 49.8% | viability at 5 µM (SH-SY5Y [2]): 20.8% | viability at 0.05 µM (SH-SY5Y [3]): 35.8%

SMILES: O=C(/C=C/c1ccc(O)cc1)NCCc1cn(Cc2ccccc2Br)c2ccccc12
viability at 0.5 µM (SH-SY5Y [1]): 32.3% | viability at 5 µM (SH-SY5Y [2]): 36.7% | viability at 0.05 µM (SH-SY5Y [3]): 45.1%

SMILES: O=C(NCCc1cn(Cc2ccccc2)c2ccccc12)c1ccc(O)cc1
viability at 0.5 µM (SH-SY5Y [1]): 54.3% | viability at 5 µM (SH-SY5Y [2]): 51.4% | viability at 0.05 µM (SH-SY5Y [3]): 31.7%

SMILES: O=C(/C=C/c1ccc(O)cc1)NCCc1cn(Cc2cccc(Cl)c2)c2ccccc12
viability at 0.5 µM (SH-SY5Y [1]): 38.8% | viability at 5 µM (SH-SY5Y [2]): 25.2% | viability at 0.05 µM (SH-SY5Y [3]): 32.2%

SMILES: CCCCn1cc(CCNC(=O)/C=C/c2ccc(O)cc2)c2ccccc21
viability at 0.5 µM (SH-SY5Y [1]): 24.1% | viability at 5 µM (SH-SY5Y [2]): 19.3% | viability at 0.05 µM (SH-SY5Y [3]): 24.3%

SMILES: O=C(/C=C/c1ccccc1)NCCc1cn(Cc2ccccc2)c2ccccc12
viability at 0.5 µM (SH-SY5Y [1]): 8.4% | viability at 5 µM (SH-SY5Y [2]): 24.7% | viability at 0.05 µM (SH-SY5Y [3]): 30.4%

AUC(0-t) at 20 min [4]: 261 ng·h/mL | remaining at 1 h, 2 µM [5]: 100% | AUC(0-inf) [6]: 863 ng·h/mL | remaining at 10 min, 2 µM [7]: 97.5% | clearance [8]: 20.4 mL/min/kg | half-life [10]: 40.2 min | Activity [11]: Active | bioavailability [12]: 3.12% | remaining at 0 min, 2 µM [14]: 100% | AUC(0-t) at 20 min [15]: 860 ng·h/mL | Activity [16]: Active | remaining at 0.5 h, 2 µM [17]: 98.8% | MRT last at 20 min [18]: 26.4 min | MRT inf [19]: 1.42 h | remaining at 2 h, 2 µM [20]: 100% | MRT inf [21]: 27 min | half-life [23]: 66.6 min | Tmax [24]: 4.98 min | half-life at 2 µM [25]: > 289 min | Tmax [27]: 30 min | MRT last at 20 min [28]: 1.24 h | Cmax [29]: 1910 ng/mL | AUC(0-inf) [30]: 269 ng·h/mL | Cmax [31]: 182 ng/mL
SMILES: O=C(/C=C/c1ccc(O)cc1)NCCc1cn(Cc2cccc(Br)c2)c2ccccc12
Activity (Mus musculus [9]): Active | viability at 0.5 µM (SH-SY5Y [1]): 48.8% | Activity (Mus musculus [13]): Active | viability at 5 µM (SH-SY5Y [2]): 55.8% | viability at 0.05 µM (SH-SY5Y [3]): 35.7% | Activity (Mus musculus [22]): Active | Activity (Mus musculus [26]): Dose-Dependent Effect

remaining at 1 h, 2 µM [5]: 93.5% | remaining at 10 min, 2 µM [7]: 97% | Activity [11]: Active | remaining at 0 min, 2 µM [14]: 100% | remaining at 0.5 h, 2 µM [17]: 89.6% | remaining at 2 h, 2 µM [20]: 91.3% | half-life at 2 µM [25]: > 289 min
SMILES: CC(C(O)c1ccc(O)cc1)N1CCC(Cc2ccccc2)CC1 (centres undefined) [IFENPRODIL]
viability at 0.5 µM (SH-SY5Y [1]): 40.4% | viability at 5 µM (SH-SY5Y [2]): 41% | viability at 0.05 µM (SH-SY5Y [3]): 29.4%

SMILES: O=C(/C=C/c1ccc(O)cc1)NCCc1cn(Cc2ccccc2F)c2ccccc12
viability at 0.5 µM (SH-SY5Y [1]): 32.4% | viability at 5 µM (SH-SY5Y [2]): 24.7% | viability at 0.05 µM (SH-SY5Y [3]): 32.4%
